Patent publication US8071786B2, “Indole compounds useful as serotonin selective agents” (Galenea Corp., priority 2005, dated 2011)
Marks after values point to notes of the source that are not given here.

Columns and labels:
human 5-HT2C-INI = target: T1, human 5-HT2C-INI (Homo sapiens, UniProt P28335); assay: Phosphoinositide hydrolysis functional assay; assay type: cell-based; conditions: for EC50: activation of phosphoinositide hydrolysis, stably expressed receptor; for Emax: value in brackets, read-out: percent Vmax relative to serotonin at 100%, 5-HT2C (converted)
T1 construct: expressed in transfected cells
T1 sequence (P28335 33-458): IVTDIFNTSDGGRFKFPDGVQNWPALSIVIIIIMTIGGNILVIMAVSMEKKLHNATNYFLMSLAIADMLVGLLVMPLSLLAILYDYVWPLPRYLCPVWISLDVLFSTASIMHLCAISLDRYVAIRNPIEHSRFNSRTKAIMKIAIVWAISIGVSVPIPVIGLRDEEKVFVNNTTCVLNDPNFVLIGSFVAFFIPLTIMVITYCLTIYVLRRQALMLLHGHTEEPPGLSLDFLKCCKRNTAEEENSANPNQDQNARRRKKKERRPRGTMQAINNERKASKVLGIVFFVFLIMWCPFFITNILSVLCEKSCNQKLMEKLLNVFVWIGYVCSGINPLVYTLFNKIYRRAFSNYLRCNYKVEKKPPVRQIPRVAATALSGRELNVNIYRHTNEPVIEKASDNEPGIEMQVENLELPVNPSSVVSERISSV
Protocol: (§1) Phosphoinositide hydrolysis assays were performed with stably (5-HT2A, 5-HT2C) or transiently (5-HT2B) expressed receptors plated in 24-well culture plates. Transfected cells were loaded with […] overnight in inositol-free DMEM without serum. The next day, phosphate accumulation assays were performed in a modified Krebs-bicarbonate buffer. Kact (nmol/L) and percent Vmax (relative to 5-HT) values were calculated (Roth, B. L., Shoham, M., Choudhary, M., Khan, N. “Identification of Conserved Aromatic Residues Essential for Agonist Binding and Second Messenger Production at 5-Hydroxytryptamine 2A Receptors” Mol. Pharmacol. 1997, 52, 259; Roth, B. L., Choudhary, M., Khan, N., Uluer, A. “High-affinity Agonist Binding is not Sufficient for Agonist Efficacy at 5-Hydroxytryptamine 2A Receptors: Evidence in Favor of a Modified Ternary Complex Model” J. Pharmacol. Exp. Ther. 1997, 280, 576).
(§2) Functional Assay (EC50) in nM. Data represent mean EC50 values for activation of phospho-inositide hydrolysis in cells expressing human 5-HT2A, 5-HT2B or 5-HT2C-INI receptors, relative to serotonin at 100%. When the standard deviation is given, N≧3.

5-HT2B [1] = target: T2, 5-HT2B (Homo sapiens, UniProt P41595); assay: Receptor binding, competition binding assay
Protocol: (§3) For initial screens, a 10 micromolar concentration of each compound (dissolved in 10% DMSO) was incubated with the appropriate receptor preparation and percent inhibition determined for duplicate determinations each performed in duplicate. Where >50% inhibition of specific binding was measured, Ki determinations were then measured by competition binding assays in which concentrations from 1 to 100,000 nM were incubated in duplicate. For each Ki value the data represent the mean+/−SD of computer-derived estimates for N=4 separate determinations, as described (Rothman, R., Baumann, M., Savage, J., Rauser, L., McBride, A., Hufeisen, S., Roth, B. L. “Evidence for Possible Involvement of 5-HT2B Receptors in the Cardiac Valvulopathy Associated with Fenfluramine and other Serotonergic Medications” Circulation 2000, 102, 2836; Roth, B. L., Shoham, M., Choudhary, M., Khan, N. “Identification of Conserved Aromatic Residues Essential for Agonist Binding and Second Messenger Production at 5-Hydroxytryptamine 2A Receptors” Mol. Pharmacol. 1997, 52, 259; Roth, B. L., Choudhary, M., Khan, N., Uluer, A. “High-affinity Agonist Binding is not Sufficient for Agonist Efficacy at 5-Hydroxytryptamine 2A Receptors: Evidence in Favor of a Modified Ternary Complex Model” J. Pharmacol. Exp. Ther. 1997, 280, 576).
(§4) Receptor binding (Ki) in nM. When the standard deviation is given N≧3.

5-HT2A [2] = target: T3, 5-HT2A (Homo sapiens, UniProt P28223); assay: Receptor binding, competition binding assay
Protocol: as §3, §4

5-HT2C [3] = target: T4, 5-HT2C (Homo sapiens, UniProt P28335); assay: Receptor binding, competition binding assay
T4 sequence (P28335 33-458): T1 sequence (P28335 33-458)
Protocol: as §3, §4

5-HT2B [4] = target: T2, 5-HT2B; assay: Phosphoinositide hydrolysis functional assay; assay type: cell-based; design: expressed in transfected cells; conditions: for EC50: activation of phosphoinositide hydrolysis, transiently expressed receptor
Protocol: as §1, §2

5-HT2A [5] = target: T3, 5-HT2A; assay: Phosphoinositide hydrolysis functional assay; assay type: cell-based; design: expressed in transfected cells; conditions: for EC50: activation of phosphoinositide hydrolysis, stably expressed receptor; for percent Vmax relative to serotonin at 100%, 5-HT2A: value in brackets
Protocol: as §1, §2

5-HT2C [6] = target: T4, 5-HT2C; conditions: background, literature; cited from earlier work
[7] = system: itch-associated scratching induced by compound 48-80; assay: Animal model for OCD: compound 48-80-induced scratching; assay type: in vivo, male Swiss-Webster mice
Protocol: (§5) The 5-HT action is at least partly mediated by 5-HT2 receptors in the skin, as shown by blocking with specific antagonists (Yamaguchi, T., Nagasawa, T., Satoh, M., Kuraishi, Y. “Itch-associated Response Induced by Intradermal Serotonin Through 5-HT2 Receptors in Mice” Neurosci. Res. 1999, 35, 77). The effect of test compounds on itch-associated scratching in the mice may indicate their action on 5-HT receptors, and a study was carried out as an animal model for OCD. The subjects were male Swiss-Webster mice, 4-6 weeks old, weighing 25-45 g. Mice were housed 5 per cage, given free access to standard mouse food and water except during experiments, and maintained in a temperature-controlled room (70° F.). Serotonin and all test drugs were made up with ascorbic acid to protect against oxidation. Two mice, one a control, the other experimental, were tested each time. Each mouse was separately placed into a plexiglas box.
Mice were injected subcutaneously between the shoulder blades with either 0.1 ml of serotonin, 0.4 mg per ml in 0.15 M saline plus ascorbic acid, 1 mg/ml, or compound 48-80 (the copolymer product of N-methyl-p-methoxyphenethylamine with formaldehyde), 1.0 mg/ml in saline plus ascorbic acid. Test compounds were injected i.p. 5 minutes before the inducer. The cumulative number of scratches with a hind leg was recorded at 5 minute intervals for 30 minutes. […]

[8] = Appetite suppression in mice, chronic assay (body weight); assay type: in vivo
Protocol: Mice were injected i.p. at intervals of 2 or 3 days and weighed repeatedly (6 or 7 total injections). Controls were injected with saline. Weighing and injection were carried out between 11 AM and 1 PM.

[9] = system: itch-associated scratching induced by serotonin; assay: Animal model for OCD: serotonin-induced scratching; assay type: in vivo, male Swiss-Webster mice; conditions: for Number of Scratches as Percentage of Control: inducer Serotonin
Protocol: as §5
Mice were injected subcutaneously between the shoulder blades with either 0.1 ml of serotonin, 0.4 mg per ml in 0.15 M saline plus ascorbic acid, 1 mg/ml, or compound 48-80 (the copolymer product of N-methyl-p-methoxyphenethylamine with formaldehyde), 1.0 mg/ml in saline plus ascorbic acid. Test compounds were injected i.p. 5 minutes before the inducer. The cumulative number of scratches with a hind leg was recorded at 5 minute intervals for 30 minutes. One saline injected control and one test animal were tested together in each assay.

[10] = Appetite suppression in mice, acute assay (food consumption); assay type: in vivo; conditions: for Mean food consumption 60 min. after injection: g (±SEM) Compound / Mean food consumption 90 min. after injection: g (±SEM) Compound: mice deprived of food 18 hours
Protocol: Mice were deprived of food, but not water, for 18 hours. They were then injected i.p. with test compounds dissolved in 0.9% NaCl containing 1 mg per ml ascorbic acid for protection against oxidation. Each mouse was placed in an individual cage for 30 minutes and then presented with a small petri dish containing a gel made from gelatin, powdered milk and sucrose. The dish was weighed at zero time and at 15-minute intervals for the next hour in order to quantitate food consumption. Controls were injected with saline-ascorbic acid; ±fenfluramine was used as an active control. Control consumption generally ranged from 1.5 to 2.0 grams.

[11] = 20 mg/kg i.p. at intervals of 2 or 3 days
[12] = 30 mg/kg i.p. at intervals of 2 or 3 days
[13] = 5 mg/kg i.p. 5 minutes before inducer Serotonin

T3 sequence (P28223 whole entry): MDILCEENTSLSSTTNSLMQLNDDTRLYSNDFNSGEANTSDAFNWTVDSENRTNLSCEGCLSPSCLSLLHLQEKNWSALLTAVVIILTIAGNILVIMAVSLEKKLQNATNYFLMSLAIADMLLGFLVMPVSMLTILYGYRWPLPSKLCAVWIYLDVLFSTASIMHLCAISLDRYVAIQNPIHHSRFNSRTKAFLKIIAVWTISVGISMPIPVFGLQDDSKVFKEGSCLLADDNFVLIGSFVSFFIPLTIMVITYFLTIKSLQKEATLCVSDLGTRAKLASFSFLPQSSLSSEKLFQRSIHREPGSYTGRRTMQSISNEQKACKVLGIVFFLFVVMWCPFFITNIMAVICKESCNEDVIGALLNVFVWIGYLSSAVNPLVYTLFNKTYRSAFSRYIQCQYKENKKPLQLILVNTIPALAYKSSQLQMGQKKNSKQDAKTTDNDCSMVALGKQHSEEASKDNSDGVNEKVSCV
T2 sequence (P41595 whole entry): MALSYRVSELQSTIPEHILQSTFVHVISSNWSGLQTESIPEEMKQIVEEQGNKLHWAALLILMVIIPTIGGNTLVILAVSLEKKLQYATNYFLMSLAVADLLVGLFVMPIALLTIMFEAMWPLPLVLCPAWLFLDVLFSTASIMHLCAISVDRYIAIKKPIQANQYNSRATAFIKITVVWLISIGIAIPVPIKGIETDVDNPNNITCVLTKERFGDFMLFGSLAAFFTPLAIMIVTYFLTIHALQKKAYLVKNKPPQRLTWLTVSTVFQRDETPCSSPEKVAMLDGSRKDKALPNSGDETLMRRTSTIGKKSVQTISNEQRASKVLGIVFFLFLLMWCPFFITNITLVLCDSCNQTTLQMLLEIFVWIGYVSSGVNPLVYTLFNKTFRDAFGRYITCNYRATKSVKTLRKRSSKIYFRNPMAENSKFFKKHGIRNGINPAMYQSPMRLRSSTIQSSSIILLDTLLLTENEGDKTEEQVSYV

Row | Compound | EC50 (human 5-HT2C-INI) [µM] | Emax (human 5-HT2C-INI) [%] | Ki (5-HT2B [1]) [µM] | Ki (5-HT2A [2]) [µM] | Ki (5-HT2C [3]) [µM] | EC50 (5-HT2B [4]) [µM] | EC50 (5-HT2A [5]) [µM] | melting point [°C] | percent Vmax relative to serotonin at 100%, 5-HT2A (5-HT2A [5]) | Average Number of Scratches 30 min. after injection [9, 13] | Number of Scratches as Percentage of Control ([9]; 5 mg/kg i.p.) [%] | % of Control (food consumption 60 min. after injection) ([10]; 10 mg/kg i.p.) [%] | % of Control (food consumption 90 min. after injection) ([10]; 10 mg/kg i.p.) [%] | Mean food consumption 60 min. after injection: g (±SEM) Compound ([10]; 10 mg/kg i.p.) | Mean food consumption 90 min. after injection: g (±SEM) Compound ([10]; 10 mg/kg i.p.) | % of Control (food consumption 60 min. after injection) ([10]; 20 mg/kg i.p.) [%] | % of Control (food consumption 90 min. after injection) ([10]; 20 mg/kg i.p.) [%] | Mean food consumption 60 min. after injection: g (±SEM) Compound ([10]; 20 mg/kg i.p.) | Mean food consumption 90 min. after injection: g (±SEM) Compound ([10]; 20 mg/kg i.p.) | % of Control (food consumption 60 min. after injection) ([10]; 30 mg/kg i.p.) [%] | other results
1 | CCn1cc(CCN(C)C)c2c(O)ccc(F)c21 [Compound O-3943, 3-(2-Dimethylaminoethyl)-7-fluoro-1-ethyl-1H-indol-4-ol] | 0.0054 ± 0.0025 | 100 | 0.0025 ± 0.00084 | 0.097 ± 0.035 | 0.0091 ± 0.00399 | > 10 | 0.0129 | 114 to 120 |  |  |  |  |  |  |  |  |  |  |  |  | 
2 | C[C@H](N)Cn1ccc2cc(F)c(Cl)cc21 [Ro 60-0175] |  |  |  |  |  |  |  |  |  |  |  |  |  |  |  |  |  |  |  |  | times more active at 5-HT2C as compared to 5-HT2A (5-HT2C [6]): 25 times
3 | CN(C)CCc1cn(CCF)c2c(F)ccc(O)c12 [Compound O-3975, 3-(2-Dimethylaminoethyl)-7-fluoro-1-(2-fluoroethyl)-1H-indol-4-ol] | > 2 |  | 0.00277 ± 0.00031 | 0.308 ± 0.0614 | 0.00774 ± 0.00065 | > 10 | 0.614 | 97 to 101 |  |  |  |  |  |  |  |  |  |  |  |  | 
4 | CCCn1cc(CCN(C)C)c2c(O)ccc(F)c21 [Compound O-3952, 3-(2-Dimethylaminoethyl)-7-fluoro-1-propyl-1H-indol-4-ol] | 0.011 ± 0.004 | 89 | 0.0028 ± 0.00031 | 0.492 ± 0.0793 | 0.0105 ± 0.00239 | > 10 | 1.28 | 75 to 79 | 103% +/− 7 |  |  |  |  |  |  |  |  |  |  |  | 
5 | CN(C)CCc1cn(C)c2c(F)ccc(OP(=O)(O)O)c12 [Compound O-3944, 3-(2-Dimethylaminoethyl)-7-fluoro-1-methyl-1H-indol-4-phosphate] |  |  |  |  |  |  |  |  |  | 113.4* | 20.2 | 74 | 75 | 0.84 (.17) g | 1.38 (.13) g | 41 | 62 | 0.56 (.10)* g | 1.05 (.14)* g | 15 | Average Number of Scratches 30 min. after injection ([7]; 30 mg/kg i.p. 5 minutes before inducer 48-80): 0*; Number of Scratches as Percentage of Control ([7]; 30 mg/kg i.p., inducer 48-80): 0%; Day 7 % Δ from starting weight [8, 11]: −1.75* %; Day 7 Difference within same group [8, 11]: -0.78 g; Day 14 % Δ from starting weight [8, 11]: −2.04* %; Day 14 Difference within same group [8, 11]: -0.91 g; Day 7 % Δ from starting weight [8, 12]: −3.66* %; Day 7 Difference within same group [8, 12]: -1.89 g; Day 14 % Δ from starting weight [8, 12]: −4.13* %; Day 14 Difference within same group [8, 12]: -2.13 g; Average Number of Scratches 30 min. after injection ([9]; 2 mg/kg i.p. 5 minutes before inducer Serotonin): 231.6; Number of Scratches as Percentage of Control ([9]; 2 mg/kg i.p.): 39.3%; % of Control (food consumption 90 min. after injection) ([10]; 30 mg/kg i.p.): 55%; Mean food consumption 60 min. after injection: g (±SEM) Compound ([10]; 30 mg/kg i.p.): 0.13 (.05)* g; Mean food consumption 90 min. after injection: g (±SEM) Compound ([10]; 30 mg/kg i.p.): 0.65 (.11)* g
6 | CN(C)CCc1cn(C)c2c(F)ccc(O)c12 [Compound O-3804, 3-(2-Dimethylaminoethyl)-7-fluoro-1-methyl-1H-indol-4-ol] | 0.000517 | 89.9 | 0.00364 | 0.0682 | 0.0254 | 0.0354 ± 0.00131 | 0.129 ± 0.00144 | 134 to 138 | (125.4% ± 6.225%) | 128.4 | 34.2 | 114 | 96 | 1.3 (.14) g | 1.76 (.15) g | 99 | 107 | 1.48 (.19) g | 1.86 (.20) g | 56 | Average Number of Scratches 30 min. after injection ([9]; 20 mg/kg i.p. 5 minutes before inducer Serotonin): 12.8*; Number of Scratches as Percentage of Control ([9]; 20 mg/kg i.p.): 2.2%; percent Vmax relative to serotonin at 100%, 5-HT2B (5-HT2B [4]; value in brackets): (7.0 ± 0.92%); % of Control (food consumption 90 min. after injection) ([10]; 30 mg/kg i.p.): 77%; Mean food consumption 60 min. after injection: g (±SEM) Compound ([10]; 30 mg/kg i.p.): 0.79 (.09)* g; Mean food consumption 90 min. after injection: g (±SEM) Compound ([10]; 30 mg/kg i.p.): 1.37 (.11) g
